Bounds are passed on as bounds.

The assay has as its target EGFR (Homo sapiens, UniProt P00533). Briefly: Cellular EGFR assay (cell EGFR). The format is cell-based. On the set-up: expressed in transfected cells; host or cells: NIH 3T3/C7. The conditions noted are these: 50% inhibition of target PTK activity. As for the experimental part:
EGF Receptor kinase activity in cells genetically engineered to express human EGF-R can be measured as described below:
1. NIH 3T3/C7 cell line (Honegger, et al., Cell 51:199-209, 1987) can be use for this assay.
1. Check seeded cells for contamination using an inverted microscope. Dilute test compounds stock (10 mg/ml in DMSO) 1:10 in DMEM medium, then transfer 5 μl to a test well for a test compounds drug dilution of 1:200 and a final DMSO concentration of 1%. Control wells receive DMSO alone. Incubate in 5% CO2 at 37° C. for one hour.
2. Prepare EGF ligand: dilute stock EGF in DMEM so that upon transfer of 10 μl dilute EGF (1:12 dilution), 25 nM final concentration is attained.
3. Prepare fresh 10 ml HNTG* sufficient for 100 μl per well wherein HNTG* comprises: HNTG stock (2.0 ml), milli-Q H2O (7.3 ml), EDTA, 100 mM, pH 7.0 (0.5 ml), Na3VO4 0.5 M (0.1 ml) and Na4(P2O7), 0.2 M (0.1 ml).
5. After two hours incubation with drug, add prepared EGF ligand to cells, 10 μl per well, to yield a final concentration of 25 nM. Control wells receive DMEM alone. Incubate, shaking, at room temperature, for 5 minutes.
6. Remove test compound, EGF, and DMEM. Wash cells twice with PBS. Transfer HNTG* to cells, 100 μl per well. Place on ice for 5 minutes. Meanwhile, remove blocking buffer from other ELISA plate and wash with TBST as described above.
7. With a pipette tip securely fitted to a micropipettor, scrape cells from plate and homogenize cell material by repeatedly aspirating and dispensing the HNTG* lysis buffer. Transfer lysate to a coated, blocked, and washed ELISA plate. Incubate shaking at room temperature for one hour.
8. Remove lysate and wash 4 times with TBST. Transfer freshly diluted anti-Ptyr antibody to ELISA plate at 100 μl per well. […]
12. The maximal phosphotyrosine signal is determined by subtracting the value of the negative controls from the positive controls. The percent inhibition of phosphotyrosine content for extract-containing wells is then calculated, after subtraction of the negative controls.

Sequence of EGFR (P00533 25-1210): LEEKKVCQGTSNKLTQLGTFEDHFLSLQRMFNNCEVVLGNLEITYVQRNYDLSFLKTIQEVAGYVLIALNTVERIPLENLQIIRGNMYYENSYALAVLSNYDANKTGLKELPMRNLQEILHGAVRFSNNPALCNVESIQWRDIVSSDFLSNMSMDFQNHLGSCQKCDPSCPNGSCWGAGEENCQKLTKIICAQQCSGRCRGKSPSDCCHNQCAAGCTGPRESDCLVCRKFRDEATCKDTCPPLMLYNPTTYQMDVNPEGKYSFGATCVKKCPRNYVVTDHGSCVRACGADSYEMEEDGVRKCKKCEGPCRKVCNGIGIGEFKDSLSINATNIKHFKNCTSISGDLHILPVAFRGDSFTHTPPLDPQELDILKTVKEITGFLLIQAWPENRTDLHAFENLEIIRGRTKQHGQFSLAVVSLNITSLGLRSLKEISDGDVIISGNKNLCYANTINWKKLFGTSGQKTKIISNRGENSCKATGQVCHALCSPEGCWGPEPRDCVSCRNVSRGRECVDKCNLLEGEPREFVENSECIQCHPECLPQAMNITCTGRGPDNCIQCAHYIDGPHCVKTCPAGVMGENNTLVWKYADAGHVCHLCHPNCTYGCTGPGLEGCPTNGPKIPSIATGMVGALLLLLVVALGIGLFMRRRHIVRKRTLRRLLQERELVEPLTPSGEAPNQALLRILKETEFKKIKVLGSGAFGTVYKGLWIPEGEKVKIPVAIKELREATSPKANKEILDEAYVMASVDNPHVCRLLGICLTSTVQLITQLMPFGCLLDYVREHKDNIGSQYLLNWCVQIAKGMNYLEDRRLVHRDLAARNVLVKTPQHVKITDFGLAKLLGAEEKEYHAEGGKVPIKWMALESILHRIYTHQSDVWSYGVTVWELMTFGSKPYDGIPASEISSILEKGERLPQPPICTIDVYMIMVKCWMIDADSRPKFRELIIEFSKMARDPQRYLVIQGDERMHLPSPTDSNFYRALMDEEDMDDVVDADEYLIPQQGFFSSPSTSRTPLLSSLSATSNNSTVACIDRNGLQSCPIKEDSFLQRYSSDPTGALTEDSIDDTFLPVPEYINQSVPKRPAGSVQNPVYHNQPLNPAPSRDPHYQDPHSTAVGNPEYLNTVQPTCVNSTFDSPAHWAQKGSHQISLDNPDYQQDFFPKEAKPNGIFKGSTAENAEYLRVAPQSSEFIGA

With `COc1ccc2c(c1)C(CC(=O)[O-])CC2=C1C(=O)Nc2ccccc21.[Na+]` (stereo not drawn) [Compound 13, [6-Methoxy-3-(2-oxo-1,2-dihydroindol-3-ylidene)-indan-1-yl]acetic Acid Sodium Salt], the IC50 was > 100 µM. Then `COc1ccc2c(c1)C(CC(=O)O)C/C2=C1/C(=O)Nc2ccccc21` (stereo not drawn) [Compound 11, [6-Methoxy-3-(2-oxo-1,2-dihydroindol-3-ylidene)-indan-1-yl]acetic Acid], with > 100 µM; and `O=C1Nc2ccccc2/C1=C1\CCc2ccccc21` [Compound 10, 3-Indan-1-ylidene-1,3-dihydroindol-2-one], with > 100 µM.

By IC50 is commonly meant the concentration that inhibits the measured activity by half.

The record behind these values is patent US6642251B1, “Geometrically restricted 2-indolinone derivatives as modulators of protein kinase activity” (Sugen, Inc., priority 1998, dated 2003).
